Test results as given in patent US20080009418A1, “Selective Inhibitors” (Alchemia LTD., priority 2004, published 2008).

Columns and labels:
[1] = target: T1, Human neurokinin (NK1) (Homo sapiens, UniProt P25103); test: Radioligand binding, human neurokinin NK1 membranes, filtration, [125I]-Substance P; conditions: compound at 10 μM; [125I]-Substance P, human NK1 membranes
T1 construct: purchased Perkin Elmer Biosignal
Summary of the method: (§1)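 Membranes from cloned human receptors were incubated with compound and radioligand for 1 hour at room temperature. Bound ligand was collected on 0.3% PEI-soaked filters, washed with cold 50 mM Tris-HCl pH 7.4, and counted by scintillation. Percent inhibition was computed against DMSO totals and reference-ligand nonspecific wells.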

[2] = target: T2, Human neuropeptide Y (NPY-Y1) (Homo sapiens, UniProt P25929); test: Radioligand binding, human neuropeptide Y NPY-Y1 membranes, FlashPlate, [125I]-PYY; conditions: compound at 10 μM; [125I]-PYY, human NPY-Y1 membranes
T2 construct: purchased Perkin Elmer Biosignal
T2 sequence (P25929 1-384): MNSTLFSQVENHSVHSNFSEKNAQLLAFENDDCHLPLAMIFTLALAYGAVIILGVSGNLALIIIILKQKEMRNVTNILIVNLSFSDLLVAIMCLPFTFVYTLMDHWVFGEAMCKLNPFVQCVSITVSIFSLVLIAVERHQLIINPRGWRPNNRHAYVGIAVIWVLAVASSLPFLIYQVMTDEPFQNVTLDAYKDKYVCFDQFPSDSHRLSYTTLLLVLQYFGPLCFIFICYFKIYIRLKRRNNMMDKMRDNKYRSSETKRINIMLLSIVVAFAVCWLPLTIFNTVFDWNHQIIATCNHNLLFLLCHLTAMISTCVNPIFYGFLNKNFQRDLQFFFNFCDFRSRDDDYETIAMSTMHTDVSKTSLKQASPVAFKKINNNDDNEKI
Summary of the method: (§2)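 Cloned human receptor membranes were coated onto FlashPlate wells and incubated with radioligand and compound (added from a 0.5 mM DMSO daughter plate) for 1 hour at room temperature in the dark. Scintillation counting gave percent inhibition, with DMSO defining total and reference ligand defining non-specific binding.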

[3] = target: T3, Human melanocortin (MC5) (Homo sapiens, UniProt P33032); test: Radioligand binding, human melanocortin MC5 membranes, FlashPlate, [125I]-NDP-αMSH; conditions: compound at 10 μM; [125I]-NDP-αMSH, human MC5 membranes
T3 construct: purchased Perkin Elmer Biosignal
T3 sequence (P33032 whole entry): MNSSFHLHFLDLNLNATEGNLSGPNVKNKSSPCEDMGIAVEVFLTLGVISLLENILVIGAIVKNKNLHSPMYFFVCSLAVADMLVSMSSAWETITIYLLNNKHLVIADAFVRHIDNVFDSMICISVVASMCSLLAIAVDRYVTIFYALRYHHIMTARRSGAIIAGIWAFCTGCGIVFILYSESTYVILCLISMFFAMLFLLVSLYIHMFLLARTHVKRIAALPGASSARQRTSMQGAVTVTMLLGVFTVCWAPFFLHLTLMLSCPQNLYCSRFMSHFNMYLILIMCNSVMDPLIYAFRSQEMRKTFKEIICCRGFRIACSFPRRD
Summary of the method: as §2

[4] = target: T4, Human Melanocortin (MC3) (Homo sapiens, UniProt P41968); test: Radioligand binding, human melanocortin MC3 membranes, FlashPlate, [125I]-NDP-αMSH; conditions: compound at 10 μM; [125I]-NDP-αMSH, human MC3 membranes
T4 construct: purchased Perkin Elmer Biosignal
T4 sequence (P41968 whole entry): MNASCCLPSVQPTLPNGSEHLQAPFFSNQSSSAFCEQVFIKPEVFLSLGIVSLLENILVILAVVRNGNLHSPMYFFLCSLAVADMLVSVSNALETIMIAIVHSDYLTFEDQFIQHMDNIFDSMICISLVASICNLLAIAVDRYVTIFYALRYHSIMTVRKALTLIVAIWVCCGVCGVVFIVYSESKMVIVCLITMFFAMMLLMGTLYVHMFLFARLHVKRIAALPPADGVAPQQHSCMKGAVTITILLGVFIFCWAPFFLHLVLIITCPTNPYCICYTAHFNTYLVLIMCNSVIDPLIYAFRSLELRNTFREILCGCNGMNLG
Summary of the method: as §2

[5] = target: T5, Human melanin-concentrating hormone (MCH1) (Homo sapiens, UniProt Q99705); test: Radioligand binding, human melanin-concentrating hormone MCH1 membranes, FlashPlate, [125I]-S36057; conditions: compound at 10 μM; [125I]-S36057, human MCH1 membranes
T5 construct: purchased Perkin Elmer Biosignal
T5 sequence (Q99705 whole entry): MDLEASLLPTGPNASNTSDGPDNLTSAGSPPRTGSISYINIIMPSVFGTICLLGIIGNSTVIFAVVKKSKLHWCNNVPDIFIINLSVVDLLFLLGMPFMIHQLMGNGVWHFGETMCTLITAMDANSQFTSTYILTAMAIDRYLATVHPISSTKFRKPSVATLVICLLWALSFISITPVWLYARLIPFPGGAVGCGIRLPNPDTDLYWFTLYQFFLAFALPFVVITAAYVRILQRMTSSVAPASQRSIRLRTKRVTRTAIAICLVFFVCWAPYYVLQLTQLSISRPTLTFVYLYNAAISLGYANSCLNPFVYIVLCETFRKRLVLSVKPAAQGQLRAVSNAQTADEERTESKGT
Summary of the method: as §2

[6] = target: T6, Mouse urotensin (mUR2) (Mus musculus, UniProt Q8VIH9); test: Radioligand binding, mouse urotensin mUR2 membranes, FlashPlate, [125I]-Urotensin II; conditions: compound at 10 μM; [125I]-Urotensin II, mouse mUR2 membranes
T6 construct: purchased Perkin Elmer Biosignal
T6 sequence (Q8VIH9 1-385): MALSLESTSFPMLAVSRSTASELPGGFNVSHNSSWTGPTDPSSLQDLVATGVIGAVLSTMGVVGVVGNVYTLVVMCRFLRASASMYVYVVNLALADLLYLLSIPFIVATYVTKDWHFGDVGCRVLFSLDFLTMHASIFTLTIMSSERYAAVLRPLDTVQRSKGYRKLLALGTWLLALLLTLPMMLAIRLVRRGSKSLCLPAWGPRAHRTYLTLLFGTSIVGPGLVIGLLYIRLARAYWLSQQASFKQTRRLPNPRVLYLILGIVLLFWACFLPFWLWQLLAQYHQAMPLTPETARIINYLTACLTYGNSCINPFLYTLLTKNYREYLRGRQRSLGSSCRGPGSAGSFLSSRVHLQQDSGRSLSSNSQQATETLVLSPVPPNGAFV
Summary of the method: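 Cloned mouse urotensin (mUR2) receptor membranes from Perkin Elmer Biosignal were immobilized in FlashPlate microplates using a proprietary coating. Each well got 19.5 μl buffer, then 0.5 μl of DMSO, reference ligand, or compound. Adding 5 μl of [125I]-Urotensin II, diluted to 5× final concentration in binding buffer, started binding. Plates were sealed with TopSeal-A and incubated 1 hour at room temperature in the dark. Wells were counted for 30 seconds each on a TopCount after a 60-second delay, and percentage inhibition was calculated.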

[7] = target: T7, Human μ-opioid (MOP) (Homo sapiens, UniProt P35372); test: Radioligand binding, human μ-opioid (MOP) membranes, FlashPlate, [3H]-Naloxone; conditions: compound at 10 μM; [3H]-Naloxone, human MOP membranes
T7 construct: purchased Perkin Elmer Biosignal
T7 sequence (P35372 whole entry): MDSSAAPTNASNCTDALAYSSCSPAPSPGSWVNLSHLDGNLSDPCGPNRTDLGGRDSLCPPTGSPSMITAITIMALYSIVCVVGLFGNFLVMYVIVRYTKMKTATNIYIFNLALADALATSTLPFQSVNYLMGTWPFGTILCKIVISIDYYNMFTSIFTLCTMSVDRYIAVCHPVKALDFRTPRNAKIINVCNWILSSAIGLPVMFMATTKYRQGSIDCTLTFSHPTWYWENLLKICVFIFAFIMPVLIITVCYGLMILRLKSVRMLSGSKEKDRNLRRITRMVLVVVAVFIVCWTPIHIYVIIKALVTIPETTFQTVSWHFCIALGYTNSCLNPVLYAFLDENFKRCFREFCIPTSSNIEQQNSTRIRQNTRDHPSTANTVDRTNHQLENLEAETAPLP
Summary of the method: as §2

[8] = target: T8, Human Melanocortin (MC4) (Homo sapiens, UniProt P32245); test: Radioligand binding, human melanocortin MC4 membranes, FlashPlate, [125I]-NDP-αMSH; conditions: compound at 10 μM; [125I]-NDP-αMSH, human MC4 membranes
T8 construct: purchased Perkin Elmer Biosignal
T8 sequence (P32245 whole entry): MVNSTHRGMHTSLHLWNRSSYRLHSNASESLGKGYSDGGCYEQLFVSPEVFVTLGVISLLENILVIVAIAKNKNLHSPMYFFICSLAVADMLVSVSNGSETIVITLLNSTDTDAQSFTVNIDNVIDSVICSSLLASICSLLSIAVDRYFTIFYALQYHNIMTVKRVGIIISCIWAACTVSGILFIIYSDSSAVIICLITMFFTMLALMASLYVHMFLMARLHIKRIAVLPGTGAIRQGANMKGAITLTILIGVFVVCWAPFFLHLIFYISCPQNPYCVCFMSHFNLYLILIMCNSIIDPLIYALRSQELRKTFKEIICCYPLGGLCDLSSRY
Summary of the method: as §2

[9] = target: T9, Human opioid (ORL1) (Homo sapiens, UniProt P41146); test: Radioligand binding, human opioid ORL1 membranes, FlashPlate, [125I]-Nociceptin; conditions: compound at 10 μM; [125I]-Nociceptin, human ORL1 membranes
T9 construct: purchased Perkin Elmer Biosignal
T9 sequence (P41146 whole entry): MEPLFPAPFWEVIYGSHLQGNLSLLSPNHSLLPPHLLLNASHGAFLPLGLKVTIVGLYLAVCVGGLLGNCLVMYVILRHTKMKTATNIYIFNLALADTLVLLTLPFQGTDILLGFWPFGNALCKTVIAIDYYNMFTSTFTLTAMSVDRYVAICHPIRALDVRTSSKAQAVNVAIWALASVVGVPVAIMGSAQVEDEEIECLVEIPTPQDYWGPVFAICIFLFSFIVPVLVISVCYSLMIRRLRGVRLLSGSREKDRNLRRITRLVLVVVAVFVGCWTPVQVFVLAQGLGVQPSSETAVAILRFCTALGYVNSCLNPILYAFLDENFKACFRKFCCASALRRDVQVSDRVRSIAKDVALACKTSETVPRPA
Summary of the method: as §2

[10] = target: T10, Human δ-opioid (DOP) (Homo sapiens, UniProt P41143); test: Radioligand binding, human δ-opioid (DOP) membranes, FlashPlate, [3H]-Bremazocine; conditions: compound at 10 μM; [3H]-Bremazocine, human DOP membranes
T10 construct: purchased Perkin Elmer Biosignal
T10 sequence (P41143 whole entry): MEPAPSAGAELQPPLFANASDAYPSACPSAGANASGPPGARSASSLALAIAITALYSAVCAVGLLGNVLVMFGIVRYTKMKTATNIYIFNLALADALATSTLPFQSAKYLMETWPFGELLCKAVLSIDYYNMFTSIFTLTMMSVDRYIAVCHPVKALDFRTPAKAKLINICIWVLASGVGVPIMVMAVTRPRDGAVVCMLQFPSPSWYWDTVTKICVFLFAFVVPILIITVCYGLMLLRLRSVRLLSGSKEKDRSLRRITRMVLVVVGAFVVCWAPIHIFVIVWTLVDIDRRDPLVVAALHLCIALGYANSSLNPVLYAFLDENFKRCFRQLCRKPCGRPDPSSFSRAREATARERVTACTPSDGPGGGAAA
Summary of the method: as §2

[11] = target: T11, Human κ-Opioid (KOP) (Homo sapiens, UniProt P41145); test: Radioligand binding, human κ-opioid (KOP) membranes, filtration, [3H]-Diprenorphine; conditions: compound at 10 μM; [3H]-Diprenorphine, human KOP membranes
T11 construct: purchased Perkin Elmer Biosignal
T11 sequence (P41145 whole entry): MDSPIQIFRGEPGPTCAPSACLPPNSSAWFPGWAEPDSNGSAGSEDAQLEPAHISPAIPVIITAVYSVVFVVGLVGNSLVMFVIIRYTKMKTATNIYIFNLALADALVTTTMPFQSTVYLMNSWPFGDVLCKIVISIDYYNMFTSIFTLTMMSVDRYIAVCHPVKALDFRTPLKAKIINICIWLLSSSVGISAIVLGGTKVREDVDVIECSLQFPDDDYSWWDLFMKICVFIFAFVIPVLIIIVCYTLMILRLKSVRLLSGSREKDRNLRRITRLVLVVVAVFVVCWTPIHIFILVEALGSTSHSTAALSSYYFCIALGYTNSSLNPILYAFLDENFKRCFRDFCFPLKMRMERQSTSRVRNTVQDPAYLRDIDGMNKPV
Summary of the method: as §1

T1 sequence (P25103 whole entry): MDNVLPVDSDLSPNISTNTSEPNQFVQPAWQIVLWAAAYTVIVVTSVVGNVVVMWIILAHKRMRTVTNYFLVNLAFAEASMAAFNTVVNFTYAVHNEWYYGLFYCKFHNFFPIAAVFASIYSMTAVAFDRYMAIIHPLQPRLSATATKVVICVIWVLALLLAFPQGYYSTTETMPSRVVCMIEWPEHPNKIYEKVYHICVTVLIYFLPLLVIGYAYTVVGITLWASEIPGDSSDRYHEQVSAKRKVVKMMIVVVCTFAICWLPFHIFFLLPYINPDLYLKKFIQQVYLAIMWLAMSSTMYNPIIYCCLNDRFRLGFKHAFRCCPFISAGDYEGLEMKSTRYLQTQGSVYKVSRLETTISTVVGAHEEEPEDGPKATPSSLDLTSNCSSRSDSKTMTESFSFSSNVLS

SMILES	A8: inhibition of radioligand binding [1]	A9: inhibition of radioligand binding [2]	A5: inhibition of radioligand binding [3]	A3: inhibition of radioligand binding [4]	A6: inhibition of radioligand binding [5]	A11: inhibition of radioligand binding [6]	A7: inhibition of radioligand binding [7]	A4: inhibition of radioligand binding [8]	A10: inhibition of radioligand binding [9]	A1: inhibition of radioligand binding [10]	A2: inhibition of radioligand binding [11]
NCCC(=O)NC1C(OCc2ccc3ccccc3c2)OC(COCc2ccc(Cl)cc2)C(O)C1OCc1ccc(Cl)cc1 (stereo not shown) [compound 383]	+ (“+” indicates greater than 50% inhibition at 10 μM)	− (“−” indicates less than 50% inhibition at 10 μM)	+ (“+” indicates greater than 50% inhibition at 10 μM)	+ (“+” indicates greater than 50% inhibition at 10 μM)	− (“−” indicates less than 50% inhibition at 10 μM)	− (“−” indicates less than 50% inhibition at 10 μM)	− (“−” indicates less than 50% inhibition at 10 μM)	+ (“+” indicates greater than 50% inhibition at 10 μM)	− (“−” indicates less than 50% inhibition at 10 μM)	− (“−” indicates less than 50% inhibition at 10 μM)	− (“−” indicates less than 50% inhibition at 10 μM)
NCCC(=O)NC1C(OCc2ccc3ccccc3c2)OC(COCc2ccc3ccccc3c2)C(O)C1OCc1ccc2ccccc2c1 (stereo not shown) [compound 384]	+ (“+” indicates greater than 50% inhibition at 10 μM)	− (“−” indicates less than 50% inhibition at 10 μM)	+ (“+” indicates greater than 50% inhibition at 10 μM)	+ (“+” indicates greater than 50% inhibition at 10 μM)	+ (“+” indicates greater than 50% inhibition at 10 μM)	− (“−” indicates less than 50% inhibition at 10 μM)	− (“−” indicates less than 50% inhibition at 10 μM)	+ (“+” indicates greater than 50% inhibition at 10 μM)	− (“−” indicates less than 50% inhibition at 10 μM)	− (“−” indicates less than 50% inhibition at 10 μM)	− (“−” indicates less than 50% inhibition at 10 μM)
NCCC(=O)NC1C(OCc2ccc3ccccc3c2)OC(COCc2ccccc2)C(O)C1OCc1ccc2ccccc2c1 (stereo not shown) [compound 385]	+ (“+” indicates greater than 50% inhibition at 10 μM)	− (“−” indicates less than 50% inhibition at 10 μM)	+ (“+” indicates greater than 50% inhibition at 10 μM)	+ (“+” indicates greater than 50% inhibition at 10 μM)	+ (“+” indicates greater than 50% inhibition at 10 μM)	− (“−” indicates less than 50% inhibition at 10 μM)	− (“−” indicates less than 50% inhibition at 10 μM)	+ (“+” indicates greater than 50% inhibition at 10 μM)	− (“−” indicates less than 50% inhibition at 10 μM)	− (“−” indicates less than 50% inhibition at 10 μM)	− (“−” indicates less than 50% inhibition at 10 μM)
NCCC(=O)NC1C(OCc2ccc3ccccc3c2)OC(COCc2ccc(Cl)cc2)C(O)C1OCc1ccc2ccccc2c1 (stereo not shown) [compound 386]	+ (“+” indicates greater than 50% inhibition at 10 μM)	− (“−” indicates less than 50% inhibition at 10 μM)	+ (“+” indicates greater than 50% inhibition at 10 μM)	+ (“+” indicates greater than 50% inhibition at 10 μM)	− (“−” indicates less than 50% inhibition at 10 μM)	− (“−” indicates less than 50% inhibition at 10 μM)	− (“−” indicates less than 50% inhibition at 10 μM)	+ (“+” indicates greater than 50% inhibition at 10 μM)	− (“−” indicates less than 50% inhibition at 10 μM)	− (“−” indicates less than 50% inhibition at 10 μM)	− (“−” indicates less than 50% inhibition at 10 μM)
NCCC(=O)NC1C(OCc2ccc3ccccc3c2)OC(COCc2ccc3ccccc3c2)C(O)C1OCc1ccccc1 (stereo not shown) [compound 387]	+ (“+” indicates greater than 50% inhibition at 10 μM)	− (“−” indicates less than 50% inhibition at 10 μM)	+ (“+” indicates greater than 50% inhibition at 10 μM)	+ (“+” indicates greater than 50% inhibition at 10 μM)	− (“−” indicates less than 50% inhibition at 10 μM)	− (“−” indicates less than 50% inhibition at 10 μM)	− (“−” indicates less than 50% inhibition at 10 μM)	+ (“+” indicates greater than 50% inhibition at 10 μM)	− (“−” indicates less than 50% inhibition at 10 μM)	− (“−” indicates less than 50% inhibition at 10 μM)	− (“−” indicates less than 50% inhibition at 10 μM)
